Data on 2 compounds can be found in US20030224026A1, “Dermatological or cosmetic composition which includes aromatic nitroxide compounds and their use” (priority 2002, published 2003).

The nature of experiment [1]: Peroxidation of unilamellar PC liposomes induced by Bu^tOOH/Cytochrome C, oxygen consumption (oxygraph). The settings on record: for inhibition of oxygen consumption: 5 μM nitroxide added 80 s after onset, 2.4 mM unilamellar PC liposomes, PBS pH 7.4, 37° C., 6 minutes. The protocol:
Oxidation was induced by injecting at point A, 25 μl of Bu^tOOH 7.3 M and injecting at point B 25 μl of cytochrome C (1 mg protein/ml). Point C refers to the addition of 5 μM of the following compounds (if not specified otherwise):
The compounds are indicated with the following abbreviations: MC4, the compound with formula (I) in which R=C4 alkyl residue; DC4, the compound with formula (I) in which R=(X) and (X) contains R1=C4 methylenic alkyl residue; MC8, the compound with formula (I) in which R=C8 alkyl residue; DC8, the compound with formula (I) in which R=(X) and (X) contains R1=C8 methylenic alkyl residue; TEMPO and TDN. With reference to FIG. 2, the percentage inhibition of the consumption of oxygen in PC unilamellar liposome (2.4 mM) in 5 mM phosphate buffer saline, 0.1 mM EDTA, pH 7.4 at 37° C. to which 5 μM nitroxide compounds was added are reported.
The Applicant has selected certain nitroxide radicals as antioxidant agents following experimental tests. The antioxidant properties were studied in the laboratory in different biological systems. The systems employed are biological systems which mimic in vivo ones. The biological systems used are subjected to oxidative damage. Oxidative damage was induced in various ways. The Applicant carried out an experimental test to evaluate the peroxidation of unilamellar PC liposomes induced by the use of the Bu^tOOH/Cytochrome C system. […]
After 80 seconds from the onset of peroxidation, the different nitroxide radicals at final concentration of 5 μM were added. […] The reaction was monitored for 6 minutes. For each nitroxide tested, the extent of inhibition of the consumption of oxygen was calculated. The value of inhibition was calculated in the following way: […]
Each individual recording is reported in FIG. 1, since the rate of oxygen consumption before the addition of the antioxidant compounds at point C is always constant. From these experiments, the percentage inhibition of oxygen consumption was calculated by subtraction as reported above.

Experiment [2] in a line: Peroxidation of multilamellar PC liposomes with incorporated nitroxides, induced by Bu^tOOH/Cytochrome C, oxygen consumption. The note with it: 22 μM nitroxide incorporated inside 0.77 mM multilamellar liposomes; pH 7.4, 37° C., 5 minutes. The protocol: The compounds are indicated with the abbreviations: MC4, DC4, TEMPO and TDN as defined for FIG. 2. With reference to FIG. 4, the percentage inhibition of the consumption of oxygen was obtained from measurements carried out on an oxygraph. The system studied consists of multilamellar PC liposomes which have nitroxides incorporated inside them ([…]) in 5 mM phosphate buffer saline, 0.1 mM EDTA, pH 7.4 at 37° C.
The Applicant carried out an experimental test to evaluate the peroxidation of multilamellar PC liposomes, induced through the Bu^tOOH/Cytochrome C system.
The liposomes employed in this experimental system contain inside them the antioxidant agents. […] The peroxidation of these liposomes was evaluated by monitoring the consumption of oxygen in a final volume of 1.8 ml and at a constant temperature of 37° C. in 5 mM of phosphate buffer saline, 0.1 mM EDTA, pH 7.4 as previously described.
The final concentration of the liposomes and of antioxidant agents, in the oxidation chamber, was 0.77 mM and 22 μM respectively. […] The consumption of oxygen was monitored for 5 minutes. For each of the nitroxides tested, the degree of suppression of oxygen consumption was calculated. […]

As for `CC1(C)CCCC(C)(C)N1[O]` [TEMPO, 2,2,6,6-tetramethylpiperidine-1-oxyl], in experiment [1], the “inhibition of oxygen consumption” value is “no protective effects”. For the same compound, the “protective effects against lipid peroxidation” value in experiment [1] (higher concentration than 5 μM, same experimental conditions) is on record as “no protective effects”. Besides, the “inhibited peroxidation (percentage of inhibition of oxygen consumption)” value in experiment [2] is given as “no effect”.
As for “bis(2,2,6,6-tetramethylpiperidine-1-oxyl-4-yl)sebacate [TDN]”, the “inhibition of oxygen consumption” value in experiment [1] is recorded as “lower inhibition values with respect to DC4”. The “inhibited peroxidation (percentage of inhibition of oxygen consumption)” value in experiment [2] is recorded as 45%.
